Test results taken from paper doi:10.1101/2020.10.13.337584v1 (bioRxiv, 2020).

Columns and labels:
[1] = Health-related side-effects after daily intranasal administration; assay type: in vivo; details: 0.1 mg/Kg intranasal daily for 10 days, BALB/C mice
[2] = test system: SARS-CoV2 (SARS CoV-2 USA_WA1/2020) in VERO E6 cells; assay type: cell-based

CC(C)[C@H](NC(=O)CNC(=O)[C@H](CC(N)=O)NC(=O)[C@@H](NC(=O)[C@@H]1CCCN1C(=O)[C@H](CCC(N)=O)NC(=O)[C@H](Cc1ccccc1)NC(=O)CNC(=O)[C@H](Cc1ccc(O)cc1)NC(=O)CCCC[C@@H]1SC[C@@H]2NC(=O)N[C@@H]21)[C@@H](C)O)C(=O)NCC(=O)N[C@@H](Cc1ccc(O)cc1)C(=O)N[C@@H](CCC(N)=O)C(=O)N1CCC[C@H]1C(=O)O [KEpTide 1]
Skin roughness or diarrhea at the end of day 10 [1]: did not see other health issue | Effect on heart rate ([1]; n=6 per group, p = 0.0758): did not cause any loss | Effect on respiratory health (oxygen saturation) ([1]; n=6 per group, p = 0.3217): did not cause any loss | Effect on body temperature ([1]; n=6 per group, p = 0.5541): did not cause any loss | Grey density (1:20) of crystal violet staining of agar monolayer [2]: 34 ± 32.73
